From patent publication US20150266920A1, “MACROCYCLIC KETOAMIDE IMMUNOPROTEASOME INHIBITORS” (HOFF-MANN-LA ROCHE INC., priority 2012, published 2015)
pEC50, pIC50: −log10 of the molar value.

Columns and labels:
[1] = molecular target: T1, β 5c (Homo sapiens, UniProt P20618+P28074); assay: Cell-Based Proteasome Activity/Selectivity Assay, Ramos cells, substrate (WLA)2Rh110; conditions: β5c substrate (WLA)2Rh110
T1 construct: protease activity associated with the proteasome complex in cultured cells; endogenous in cells; host or cells: Ramos cells
Source text: (§1) Cell-Based Proteasome Activity/Selectivity Assay
(§2) The Cell-Based Proteasome subunit activity/selectivity assay was a panel of 5 fluorogenic assays that independently measured the activity of β5c or β 5i (chymotrypsin-like activity), β2c/2i (trypsin-like), and β 1c or β 1i (caspase-like) protease activity associated with the proteasome complex in cultured cells. Specifically, the following substrates were used for respective subunit activities: β 1i: (PAL)2Rh110, β 1c: (LLE)2 Rh110, β2c/2i: (KQL)2Rh110, β 5c: (WLA)2Rh110, β 5i: (ANW)2Rh110. The following procedure was followed:
(§3) Cell preparation: Plated 25 μl of Ramos cells (2×10^6/ml in DPBS) into half area plate (PerkinElmer Cat 6005569) to final 5×10^4 cells/well. Added 0.5 μl of 100×4-fold serial diluted test compounds or DMSO to each well. Highest concentration of compound tested was 20 thus compound serial dilution started from […]. Incubated for 30 minutes at 37° C. Then equilibrated at room temperature for 15 minutes. Added 25 μl of 2× reaction mix consisting of 0.025% digitonin, 20 μM of each substrates and 0.5M sucrose in DPBS. Shaked for one minute @ 700 rpm. Incubated for […] at room temperature. Then read the plates with an Envision multilabel plate reader (PerkinElmer) with 500 nm excitation/519 nm emission.

[2] = tested on: IP 10 level; assay: PBMC IP-10 Assay; type: cell-based; conditions: Homo sapiens, PBMCs stimulated with CpG Type A, assay not named in the column head
Experimental: PBMCs were isolated from whole blood as follows: Blood was collected in a sterile environment in heparinized tubes. Blood was diluted with an equal volume PBS/2% FCS and 30 ml of this mixture was added to ACCUSPIN tubes containing 15 ml Histopaque-1077 already centrifuged at 800 g for 30 seconds and warmed up at room temperature. The tubes were then centrifuged at 800 g for 20 minutes at room temperature with no brake. The mononuclear band, just above the polyethylene frit, was removed by Pasteur pipet. These mononuclear cells were washed three times with sterile PBS, counted, and resuspended in RPMI 1640 supplemented with 10% heat inactivated fetal calf serum, 10 mM HEPES, 1 mM sodium pyruvate, penicillin (50 U/ml), streptomycin (50 μg/ml) and glutamine (2 mM) to approximately 1.5×10^6/ml. […] PBMC viability of cells remaining in the well was measured with ATPlite luminescence assay (Perkin-Elmer) per the manufacturer's instructions. Luminescence was measured on the Perkin-Elmer Envision, using the luminescence filter. IP 10 level was measured with CXCL10/IP10 AlphaLISA kit (Perkin-Elmer) per the manufacturer's instructions, except halving all volumes. Fluorescence was measured on the Envision Multilabel plate reader, using the AlphaScreen standard settings.

[3] = molecular target: T2, β 1i (Homo sapiens, UniProt P28065+P40306); assay: Cell-Based Proteasome Activity/Selectivity Assay, Ramos cells, substrate (PAL)2Rh110; conditions: β1i substrate (PAL)2Rh110
T2 construct: protease activity associated with the proteasome complex in cultured cells; endogenous in cells; host or cells: Ramos cells
Source text: as §1, §2, §3

[4] = molecular target: T3, β 5i (Homo sapiens, UniProt P20618+P28062); assay: Cell-Based Proteasome Activity/Selectivity Assay, Ramos cells, substrate (ANW)2Rh110; conditions: β5i substrate (ANW)2Rh110, read-out: Ic50 ramos: ac-(anw)2-r110
T3 construct: protease activity associated with the proteasome complex in cultured cells; endogenous in cells; host or cells: Ramos cells
Source text: as §1, §2, §3

[5] = molecular target: T4, β 1c (Homo sapiens, UniProt P28072+Q99436); assay: Cell-Based Proteasome Activity/Selectivity Assay, Ramos cells, substrate (LLE)2 Rh110; conditions: β1c substrate (LLE)2 Rh110
T4 construct: protease activity associated with the proteasome complex in cultured cells; endogenous in cells; host or cells: Ramos cells
Source text: as §1, §2, §3

[6] = tested on: β2c/2i; assay: Cell-Based Proteasome Activity/Selectivity Assay, Ramos cells, substrate (KQL)2Rh110; conditions: β2c/2i substrate (KQL)2Rh110
Source text: as §1, §2, §3

[7] = molecular target: T5, LMP7 (Mus musculus, UniProt O09061+P28063); conditions: MRL/lpr lupus-prone mice; cited from earlier work
[8] = molecular target: T5, LMP7; conditions: mouse CAIA and CIA arthritis models; cited from earlier work
[9] = molecular target: T5, LMP7; conditions: DSS-induced colitis model in mice; cited from earlier work

pIC50 [1]	pEC50 [2]	pIC50 [3]	pIC50 [4]	pIC50 [5]	pIC50 [6]	SMILES	disease progression [7]	plasma cells numbers and levels of anti-dsDNA IgG [7]	disease score [8]	inflammation and tissue destruction [9]
6.45	6.46	5.70	7.72	< 4.70	< 4.70	C[C@@H]1NC(=O)CCc2cccc(c2)-c2cccc(c2)CC[C@@H](C(=O)N[C@@H](Cc2ccccc2)C(=O)C(=O)NCc2ccccc2)NC1=O [Example 1, (9S,12S)-12-Methyl-11,14-dioxo-10,13-diaza-tricyclo[15.3.1.1^2,6]docosa-1(20),2(22),3,5,17(21),18-hexaene-9-carboxylic acid ((S)-1-benzyl-2-benzylcarbamoyl-2-oxo-ethyl)-amide]				
						COc1ccc(C[C@H](NC(=O)[C@H](C)NC(=O)CN2CCOCC2)C(=O)N[C@@H](Cc2ccccc2)C(=O)[C@@]2(C)CO2)cc1 [PR-957]	prevented disease progression	reduced plasma cells numbers and levels of anti-dsDNA IgG	significantly decrease disease score	reduced inflammation and tissue destruction
